1 substance from publication PMC4742190, “Mitotic entry: Non-genetic heterogeneity exposes the requirement for Plk1” (Oncotarget, 2015) can be followed below.

Among the targets are Plk3 (Homo sapiens, UniProt Q9H4B4); Plk1 (Homo sapiens, UniProt P53350); Plk2 (Homo sapiens, UniProt Q9NYY3).
Holding throughout (assay): enzyme (kinase) assay
Assay type in all cases: biochemical

Plk1, sequence (P53350 2-603): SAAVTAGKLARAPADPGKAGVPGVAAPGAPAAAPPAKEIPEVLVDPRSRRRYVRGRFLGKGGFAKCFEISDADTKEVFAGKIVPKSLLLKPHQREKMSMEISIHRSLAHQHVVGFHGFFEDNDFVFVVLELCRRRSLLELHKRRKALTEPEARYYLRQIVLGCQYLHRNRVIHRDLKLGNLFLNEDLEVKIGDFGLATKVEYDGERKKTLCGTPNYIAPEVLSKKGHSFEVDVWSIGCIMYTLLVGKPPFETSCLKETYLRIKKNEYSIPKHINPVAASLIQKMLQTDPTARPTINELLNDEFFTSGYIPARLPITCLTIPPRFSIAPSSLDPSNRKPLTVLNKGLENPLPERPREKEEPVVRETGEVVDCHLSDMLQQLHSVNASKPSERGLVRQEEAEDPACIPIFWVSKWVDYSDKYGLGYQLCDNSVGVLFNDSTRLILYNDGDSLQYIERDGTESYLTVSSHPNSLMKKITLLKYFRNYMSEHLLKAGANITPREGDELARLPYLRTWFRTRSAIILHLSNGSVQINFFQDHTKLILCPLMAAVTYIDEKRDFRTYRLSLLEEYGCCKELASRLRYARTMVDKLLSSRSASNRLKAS
Plk3, sequence (Q9H4B4 whole entry): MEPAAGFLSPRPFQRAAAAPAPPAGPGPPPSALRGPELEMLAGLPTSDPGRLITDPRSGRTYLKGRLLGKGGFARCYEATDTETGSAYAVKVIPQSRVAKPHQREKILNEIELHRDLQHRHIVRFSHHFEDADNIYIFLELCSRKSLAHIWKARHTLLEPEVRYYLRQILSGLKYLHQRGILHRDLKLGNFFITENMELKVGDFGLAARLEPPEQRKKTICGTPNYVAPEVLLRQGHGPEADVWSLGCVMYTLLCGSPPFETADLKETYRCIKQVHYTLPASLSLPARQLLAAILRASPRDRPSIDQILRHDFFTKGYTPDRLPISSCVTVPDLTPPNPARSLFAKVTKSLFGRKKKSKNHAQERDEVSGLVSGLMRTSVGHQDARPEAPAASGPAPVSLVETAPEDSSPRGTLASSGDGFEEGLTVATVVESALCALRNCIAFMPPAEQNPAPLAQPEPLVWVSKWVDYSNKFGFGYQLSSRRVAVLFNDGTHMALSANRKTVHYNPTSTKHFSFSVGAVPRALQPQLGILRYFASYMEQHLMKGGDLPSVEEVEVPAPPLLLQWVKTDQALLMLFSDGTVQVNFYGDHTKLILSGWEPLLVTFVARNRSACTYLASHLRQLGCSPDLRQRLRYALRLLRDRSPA
Plk2, sequence (Q9NYY3 whole entry): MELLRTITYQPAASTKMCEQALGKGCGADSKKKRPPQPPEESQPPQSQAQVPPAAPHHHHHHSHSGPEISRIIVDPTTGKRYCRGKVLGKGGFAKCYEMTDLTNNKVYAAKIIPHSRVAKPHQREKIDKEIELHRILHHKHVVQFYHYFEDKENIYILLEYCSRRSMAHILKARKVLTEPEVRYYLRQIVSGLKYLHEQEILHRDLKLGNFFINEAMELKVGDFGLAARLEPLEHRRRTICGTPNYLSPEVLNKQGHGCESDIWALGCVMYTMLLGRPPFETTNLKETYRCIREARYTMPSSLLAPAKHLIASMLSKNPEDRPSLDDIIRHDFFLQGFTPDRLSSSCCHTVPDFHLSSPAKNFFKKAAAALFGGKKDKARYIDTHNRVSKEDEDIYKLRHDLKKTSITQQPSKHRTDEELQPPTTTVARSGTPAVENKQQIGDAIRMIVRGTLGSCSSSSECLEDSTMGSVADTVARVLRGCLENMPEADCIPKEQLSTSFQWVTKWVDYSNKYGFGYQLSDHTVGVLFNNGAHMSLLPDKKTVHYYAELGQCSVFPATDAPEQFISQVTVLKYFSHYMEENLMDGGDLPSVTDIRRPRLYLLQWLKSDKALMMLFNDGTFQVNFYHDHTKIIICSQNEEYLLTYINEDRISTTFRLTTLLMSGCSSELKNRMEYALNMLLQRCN

With CYC140844, the figures for the half-maximal inhibitory concentration (IC50) against Plk3, against Plk1 and against Plk2 were 702 nM, 36 nM and 113 nM, respectively.
